{"source": "patent US20240052109A1", "about": "“POLYSILOXANE VINYLIC MONOMERS AND USES THEREOF” (Alcon Inc., priority 2022, published 2024)", "assay": "Solubility of PDMS vinylic monomer in 1-PrOH:Water mixtures", "assay_type": "physicochemical", "conditions": "50-60 mg sample, stirred at room temperature", "protocol": "The solubility of quaternium ammonium containing PDMS vinylic monomer prepared in Example 2 is evaluated in 1-PrOH:Water mixtures. Typically, 50-60 mg of the sample is combined with a selected solvent system and it is stirred/agitated at room temperature. After few minutes compatibility is evaluated. For comparison, the solubilities of three reference materials are also evaluated. The three reference material are: methacryloxypropyl- and n-butyl-terminated polydimiethylsiloxane (D6, Mn=700-800 g/mol) (Ref. 1); methacryloxypropyl- and n-butyl-terminated polydimiethylsiloxane (D9, Mn=900-1,000 g/mol) (Ref. 2); and methyl- and 2-[4-(chloromethyl)phenyl]ethyl-terminated polydimethylsiloxane (Ref. 3).", "data": [{"compound": "C=CC(=O)NCCC[N+](C)(C)Cc1ccc(CC[Si](C)(C)O[Si](C)(C)O[Si](C)(C)O[Si](C)(C)O[Si](C)(C)C)cc1", "note": "[Example 2]", "values": [{"measurement": "Solubility (compatibility) in 1-PrOH:Water", "setting": "1-PrOH:Water 0:100", "result": "Hazy"}, {"measurement": "Solubility (compatibility) in 1-PrOH:Water", "setting": "1-PrOH:Water 20:80", "result": "Hazy"}, {"measurement": "Solubility (compatibility) in 1-PrOH:Water", "setting": "1-PrOH:Water 40:60", "result": "Clear"}, {"measurement": "Solubility (compatibility) in 1-PrOH:Water", "setting": "1-PrOH:Water 60:40", "result": "Clear"}, {"measurement": "Solubility (compatibility) in 1-PrOH:Water", "setting": "1-PrOH:Water 80:20", "result": "Clear"}, {"measurement": "Solubility (compatibility) in 1-PrOH:Water", "setting": "1-PrOH:Water 100:0", "result": "Clear"}]}, {"compound": "methacryloxypropyl- and n-butyl-terminated polydimiethylsiloxane [Ref. 1]", "values": [{"measurement": "Solubility (compatibility) in 1-PrOH:Water", "setting": "1-PrOH:Water 0:100", "result": "Hazy"}, {"measurement": "Solubility (compatibility) in 1-PrOH:Water", "setting": "1-PrOH:Water 20:80", "result": "Hazy"}, {"measurement": "Solubility (compatibility) in 1-PrOH:Water", "setting": "1-PrOH:Water 40:60", "result": "Hazy"}, {"measurement": "Solubility (compatibility) in 1-PrOH:Water", "setting": "1-PrOH:Water 60:40", "result": "Hazy"}, {"measurement": "Solubility (compatibility) in 1-PrOH:Water", "setting": "1-PrOH:Water 80:20", "result": "Clear"}, {"measurement": "Solubility (compatibility) in 1-PrOH:Water", "setting": "1-PrOH:Water 100:0", "result": "Clear"}]}, {"compound": "methacryloxypropyl- and n-butyl-terminated polydimiethylsiloxane [Ref. 2]", "values": [{"measurement": "Solubility (compatibility) in 1-PrOH:Water", "setting": "1-PrOH:Water 0:100", "result": "Hazy"}, {"measurement": "Solubility (compatibility) in 1-PrOH:Water", "setting": "1-PrOH:Water 20:80", "result": "Hazy"}, {"measurement": "Solubility (compatibility) in 1-PrOH:Water", "setting": "1-PrOH:Water 40:60", "result": "Hazy"}, {"measurement": "Solubility (compatibility) in 1-PrOH:Water", "setting": "1-PrOH:Water 60:40", "result": "Hazy"}, {"measurement": "Solubility (compatibility) in 1-PrOH:Water", "setting": "1-PrOH:Water 80:20", "result": "Hazy"}, {"measurement": "Solubility (compatibility) in 1-PrOH:Water", "setting": "1-PrOH:Water 100:0", "result": "Clear"}]}, {"compound": "methyl- and 2-[4-(chloromethyl)phenyl]ethyl-terminated polydimethylsiloxane [Ref. 3]", "values": [{"measurement": "Solubility (compatibility) in 1-PrOH:Water", "setting": "1-PrOH:Water 0:100", "result": "Hazy"}, {"measurement": "Solubility (compatibility) in 1-PrOH:Water", "setting": "1-PrOH:Water 20:80", "result": "Hazy"}, {"measurement": "Solubility (compatibility) in 1-PrOH:Water", "setting": "1-PrOH:Water 40:60", "result": "Hazy"}, {"measurement": "Solubility (compatibility) in 1-PrOH:Water", "setting": "1-PrOH:Water 60:40", "result": "Hazy"}, {"measurement": "Solubility (compatibility) in 1-PrOH:Water", "setting": "1-PrOH:Water 80:20", "result": "Clear"}, {"measurement": "Solubility (compatibility) in 1-PrOH:Water", "setting": "1-PrOH:Water 100:0", "result": "Clear"}]}]}
